Several values for one entry are separate records, joined by “and”; a condition that tells them apart may be missing. Equal values may be shown once.
Tested on: 328373-195-R-J1-PDC complex spheroids, viability % test/control
Test: Anticancer human tumor 328373-195-R-J1-PDC patient-derived head and neck squamous carcinoma cell line growth inhibition [CLK]
Conditions: for viability, T/C: stronger effect = lower value; active means viability on the fitted dose curve at most 10% of control; inactive means the rest
Summary of the method: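 Multi-cell-type spheroids combined patient-derived tumor cells with HUVEC endothelial cells and human mesenchymal stem cells. Paired agents were dosed in half-log steps down from about clinical Cmax, or from 10 microM where Cmax was unknown.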
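Further: spheroids exposed to the agents for 7 days.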

CC1(C)CCC(CN2CCN(c3ccc(C(=O)NS(=O)(=O)c4ccc(NCC5CCOCC5)c([N+](=O)[O-])c4)c(Oc4cnc5[nH]ccc5c4)c3)CC2)=C(c2ccc(Cl)cc2)C1 + CNC(=O)c1ccc(Nc2nc(OC3CCCC3)c3c(-c4ccc5nc(C)oc5c4)c[nH]c3n2)c(OC)c1
inactive: viability, T/C (second compound 0.0316 µM, first compound 0.0316 µM) 55.4% | viability, T/C (second compound 0.0316 µM, first compound 0.1 µM) 54.7% | viability, T/C (second compound 0.0316 µM, first compound 0.316 µM) 51.1% | viability, T/C (second compound 0.0316 µM, first compound 1 µM) 55.7% | viability, T/C (second compound 0.0316 µM, first compound 3.16 µM) 39.5% | viability, T/C (second compound 0.1 µM, first compound 0.0316 µM) 9.96% | viability, T/C (second compound 0.1 µM, first compound 0.1 µM) 10.7% | viability, T/C (second compound 0.1 µM, first compound 0.316 µM) 12.1% | viability, T/C (second compound 0.1 µM, first compound 1 µM) 11.7% | viability, T/C (second compound 0.1 µM, first compound 3.16 µM) 11.5% | viability, T/C (second compound 0.1 µM, first compound 10 µM) 6.36% | viability, T/C (second compound 0.316 µM, first compound 0.0316 µM) 10% | viability, T/C (second compound 10 µM, first compound 0.0316 µM) 12.1% | viability, T/C (second compound 10 µM, first compound 0.1 µM) 9.87% | viability, T/C (second compound 10 µM, first compound 0.316 µM) 10.2% | viability, T/C (second compound 10 µM, first compound 1 µM) 11.4% | viability, T/C (second compound 10 µM, first compound 3.16 µM) 12.4% | viability, T/C (second compound 10 µM, first compound 10 µM) 11.9%
< 31.6 nM: IC50 (curve of first compound, second compound 0.1 µM) | IC50 (curve of first compound, second compound 0.316 µM) | IC50 (curve of first compound, second compound 1 µM) | IC50 (curve of first compound, second compound 3.16 µM) | IC50 (curve of first compound, second compound 10 µM)
1390 nM: IC50 (curve of first compound, second compound 0.0316 µM)
active: viability, T/C (second compound 0.0316 µM, first compound 10 µM) 7.81% | viability, T/C (second compound 0.316 µM, first compound 0.1 µM) 10.9% | viability, T/C (second compound 0.316 µM, first compound 0.316 µM) 10.2% | viability, T/C (second compound 0.316 µM, first compound 1 µM) 9.51% | viability, T/C (second compound 0.316 µM, first compound 3.16 µM) 8.53% | viability, T/C (second compound 0.316 µM, first compound 10 µM) 6.4% | viability, T/C (second compound 1 µM, first compound 0.0316 µM) 7.73% | viability, T/C (second compound 1 µM, first compound 0.1 µM) 8.42% | viability, T/C (second compound 1 µM, first compound 0.316 µM) 10.8% | viability, T/C (second compound 1 µM, first compound 1 µM) 10.6% | viability, T/C (second compound 1 µM, first compound 3.16 µM) 9.13% | viability, T/C (second compound 1 µM, first compound 10 µM) 6.23% | viability, T/C (second compound 3.16 µM, first compound 0.0316 µM) 8.9% | viability, T/C (second compound 3.16 µM, first compound 0.1 µM) 11.5% | viability, T/C (second compound 3.16 µM, first compound 0.316 µM) 10.7% | viability, T/C (second compound 3.16 µM, first compound 1 µM) 10.2% | viability, T/C (second compound 3.16 µM, first compound 3.16 µM) 9.43% | viability, T/C (second compound 3.16 µM, first compound 10 µM) 6.44%

CC1COCCN1c1cc(C2(S(C)(=N)=O)CC2)nc(-c2ccnc3[nH]ccc23)n1 (centres undefined)
inactive: viability, T/C (compound 0.0316 µM) 99.7% and 95.9% | viability, T/C (compound 0.1 µM) 91.5% and 81.3% | viability, T/C (compound 0.316 µM) 88.8% and 91.9% | viability, T/C (compound 1 µM) 70.2% and 70% | viability, T/C (compound 3.16 µM) 29.4% and 27.2%
1760 nM and 1730 nM: IC50 (curve of compound)
active: viability, T/C (compound 10 µM) 9.11% and 6.62%

— PubChem BioAssay AID2060620 (Molecular Pharmacology Branch, DTP, NCI, 2025)
